Data from patent publication US20230094545A1, “S1P RECEPTOR MODULATORS” (AKAAL PHARMA PTY LTD, priority 2020, published 2023).

What was measured:
[1] = Solubility in water / precipitation in buffer; assay type: physicochemical; settings: listed as compound of formula I
Experimental: To solubilize the free base in water the novel technology AvignaSOL (N,N-Dimethyl hexanamide; patent number: U.S. Pat. No. 9,186,338B2) and its higher derivatives such as octinamide, decamide which improve the absorption of various poorly soluble drugs was used. AvignaSOL as 1-70% ww % assisted the solubilization of free base as 1 gm/20 mL of water. The solubility of free base in water assisted its direct use in various formulation such as creams, gels, solutions which together with the permeation enhancing effect will be harnessed to improve skin penetration and/or bioavailability and in altering the pharmacokinetics and pharmacodynamics profile of free base.
The AvignaSOL having a log P of ˜1.6 hinder the release by increasing the hydrophobicity of the delivery system. […] The combination of compound of formula I with other ingredients including sustained release enhancer with or without AvignaSOL were prepared as novel formulation techniques to improve and/or alter the pharmacokinetics and pharmacodynamics profile of compound of Formula I.

[2] = system: burn wound and scratch wounds; test: Topical formulation in wound patients (case reports); assay type: in vivo, human
Experimental: A patient presented with a second degree burn wound on the inner surface of their middle finger of their left hand, suffering from swelling, blistering and pain at the site of injury. A topical gel formulation of compound of formula (I) was applied topically to the site of injury.
A patient presented with a scratch wounds on hands while cleaning gutters. These become inflamed and painful in 3 hours.

[3] = system: atopic dermatitis and psoriasis disease models; test: Atopic dermatitis and psoriasis disease models, cytokines; settings: in vivo
[4] = system: paclitaxel induced neuropathic pain; test: Paclitaxel induced neuropathic pain; assay type: in vivo, Sprague Dawley Rats
Experimental: Forty-eight male Sprague Dawley Rats were assigned to different treatment and control groups containing 8 animals per group. All animals, except the Naive control were injected with Paclitaxel (2 mg/kg) intraperitoneally on four alternate days (D0, D2, D4 and D6). For prophylactic intervention, the compound of Formula I was dosed orally at dose of 0.3, 1 and 3 mg/kg/day when the treatment was initiated along with paclitaxel treatment and the dosage was continued until day 15 post first paclitaxel injection. For therapeutic intervention, the compound of Formula I was dosed orally at dose of 3 mg/kg/day when the treatment was initiated after establishment of neuropathic pain i.e. on day 16 post first paclitaxel injection and was continued for the next 7 days.
For behavioural testing each rat was allowed to acclimatize individually to a transparent enclosure on elevated wire mesh for at least 15 min. Behavioural testing was performed using an Electronic von Frey Aesthesiometer (IITC Life Science) to evaluate paw withdrawal threshold to mechanical stimulus.
Based on these findings it can be concluded that treatment with the compound of formula (I) is effective both as a prophylactic and therapeutic and has an anti-allodynic effect in paclitaxel induced neuropathic pain.

[5] = system: experimental autoimmune encephalomyelitis (EAE); test: EAE model, RT-PCR for IL-31, IL1β and IFNγ in spleen; assay type: in vivo; settings: 3 mg/kg from 11th day, Day 27
Experimental: The efficacy of the compound of formula (I) was assessed in an animal model of experimental autoimmune encephalomyelitis (EAE), which is a widely-accepted model of demyelinating diseases such as MS. The cDNA was prepared from spleen obtained from Vehicle treated (Control), EAE induced (no treatment) and EAE induced (a compound of formula (I) treated) animals (n=5 each group) at the recovery (Day 27 from 1st day of MBP immunization). The treatment with a compound of Formula I (3 mg/kg) was initiated on the 11th day from MBP immunization. cDNA was synthesized using Bio-Rad cDNA synthesis kit. RT-PCR was performed for IL-31, IL1β and IFNγ. Primers were obtained from Qiagen and the samples were analysed on Bio-Rad CFX96Real-Time System. […] Statistical Significance of the data is represented by p value. *denotes p≤0.05, **denotes p≤0.01.

[6] = system: middle cerebral artery occlusion (MCAO); test: Middle cerebral artery occlusion (MCAO) model of stroke; assay type: in vivo; settings: oral 1, 3 and 5 mg/kg; ischemia 60 min, reperfusion 72 h
Experimental: The compound of Formula I was assessed in an animal model of stroke, namely the middle cerebral artery occlusion (MCAO) model. The effect of a compound of Formula I on infarctions (TTC staining) and BBB leakage (Evan's blue extravasation) ischemia for 60 min and reperfusion for 72 h was assessed.

DSS-induced colitis = test: DSS-induced ulcerative colitis model; assay type: in vivo, Balb/C Mice
Experimental: The effect of a compound of formula (I) was assessed in an animal model of Ulcerative colitis. 24 Balb/C Mice were divided into […]; control and treatment (n=6). Acute colitis was induced in all groups by adding 2.5% w/v Dextran Sulphate Sodium (DSS) treatment in drinking water for 5-7 days. A compound of Formula I was administered at dose of 3 mg/kg body weight by oral route as a repeated dose for 3 or 6 days, consecutively. […] During day 6 these observations were reduced to 16.66% in control and 0.00% in a compound of Formula I group.
The mean colon lengths were 9.67 cm, 9.88 cm, 11.20 cm and 13.02 cm in day 3 control group, day 6 control group, day 3 a compound of Formula I treated group and day 6 a compound of Formula I treated group respectively. […] The severity of presence of haemorrhages with desquamated cells seen in lumen of colon of control animals was reduced in a compound of Formula (I) treated animals.

CCCOc1ccc(-c2nc(-c3ccc4oc(C(N)(CO)CO)cc4c3)no2)cc1Cl [compound of formula (I)]
solubility in water [1]: soluble in water | adverse side effects ([2]; both cases): No adverse side effects | swelling and pain of scratch wounds ([2]; ointment formulation, one patient): swelling and pain reduced dramatically | swelling and blistering of burn wound ([2]; topical gel formulation, after 10 minutes, one patient): swelling and blistering had visibly reduced dramatically | pain of burn wound ([2]; topical gel formulation, one patient): significant pain relief | cytokines IL17, IL23, IL2 [3]: downregulates the cytokines IL17, IL23, IL2 | neuropathic pain, therapeutic treatment ([4]; 3 mg/kg/day oral after establishment of pain, maximum effect after 5th daily dose): reversal of neuropathic pain in time dependent manner | development of neuropathic pain, prophylactic treatment ([4]; 0.3, 1 and 3 mg/kg/day oral, maximum effect at 3 mg/kg/day): inhibited the development of paclitaxel induced neuropathic pain dose dependently | reduction of day 16 score ([4]; preventive model, 1 and 3 mg/kg dose levels, p<0.001): > 60% | anti-allodynic effect after withdrawal of treatment on day 15 ([4]; until 7 days post last drug treatment (day 22)): did not cause any reversal of the drug's anti-allodynic effect | markers of inflammation (IL-31, IL1β, IFNγ, RT-PCR, spleen) [5]: significantly reduced markers of inflammation | infarct volume, infarct area, sensory motor function, blood brain barrier leakage [6]: significantly reduced the infarct volume, infract area and sensory motor function and blood brain barrier leakage | DSS-induced colitis, overall (DSS-induced colitis; 3 mg/kg oral daily): improvement of DSS-induced colitis | mean colon length (DSS-induced colitis; day 3, 3 mg/kg oral): 11.20 cm | gross pathological observations (emaciated, anal area soiled with blood) (DSS-induced colitis; day 6, 3 mg/kg oral): 0.00% | mean colon length (DSS-induced colitis; day 6, 3 mg/kg oral): 13.02 cm | increase in mucus secreting goblet cells (DSS-induced colitis; histopathology day 6): moderate ( 4/6 animals) to minimal (⅙ animals) increase | infiltration of MNC (DSS-induced colitis; histopathology day 6): minimal in 2/6 animals and mild in ⅙ animals | thickness of mucosa (DSS-induced colitis; histopathology day 6, compared to control): markedly reduced | incidence of increase in thickness of mucosa (DSS-induced colitis; histopathology of colon): mild in 3/6 animals and minimal in 2/6 animals | number of mucus secreting goblet cells (DSS-induced colitis; histopathology of colon): increased moderately ( 4/6) | severity of haemorrhages with desquamated cells in lumen of colon (DSS-induced colitis; histopathology of colon): reduced
